Source: ChEMBL document CHEMBL4311957, “Recent advances in natural antifungal flavonoids and their derivatives” (Bioorg Med Chem Lett, 2019)
Values after ≈ are worked out from the molar mass of the structure shown.

Experiments:
Trichophyton = test: Antifungal activity against Trichophyton; type: functional
Candida albicans [1] = test: Antifungal activity against Candida albicans; type: functional, organism-based
Candida albicans [2] = test: Synergistic antifungal activity against Candida albicans after 24 hrs in presence of Miconazole by checkerboard method; type: functional, organism-based
Candida albicans [3] = test: Antifungal activity against Candida albicans ATCC10231 at 50 ug/ml relative to control; type: functional; details: ATCC 10231
Candida parapsilosis [4] = test: Antifungal activity against Candida parapsilosis ATCC 22019 after 12 to 18 hrs by ELISA; type: functional; details: Lodderomyces parapsilosis
Trichophyton rubrum [5] = test: Antifungal activity against Trichophyton rubrum KCTC 6345 after 12 to 18 hrs by ELISA; type: functional
Candida albicans [6] = test: Antifungal activity against Candida albicans ATCC 90028 after 12 to 18 hrs by ELISA; type: functional
Trichosporon beigelii = test: Antifungal activity against Trichosporon beigelii KCTC 7707 after 12 to 18 hrs by ELISA; type: functional
Candida albicans [7] = test: Antifungal activity against Candida albicans ATCC10231; type: functional; details: ATCC 10231
Malassezia furfur = test: Antifungal activity against Malassezia furfur KCTC 7744 after 12 to 18 hrs by ELISA; type: functional
Candida albicans [8] = test: Antibiofilm activity against Candida albicans by CSLM based method; type: functional
Nakaseomyces glabratus [9] = test: Antifungal activity against Candida glabrata ATCC 90030; type: functional
Nakaseomyces glabratus [10] = test: Antifungal activity against Candida glabrata 507 by microdilution method; type: functional
Candida albicans [11] = test: Antifungal activity against FLC-resistant Candida albicans; type: functional
Candida albicans [12] = test: Antifungal activity against Candida albicans ATCC 10231 by microdilution method; type: functional
Candida tropicalis [13] = test: Antibiofilm activity against Candida tropicalis by CSLM based method; type: functional
Aspergillus fumigatus [14] = test: Antifungal activity against Aspergillus fumigatus NBRC 4400 by microdilution method; type: functional
Candida albicans [15] = test: Antifungal activity against Candida albicans NBRC 1385 by microdilution method; type: functional
Candida parapsilosis [16] = test: Antifungal activity against Candida parapsilosis 96 by microdilution method; type: functional; details: Lodderomyces parapsilosis
Candida albicans [17] = test: Antifungal activity against Candida albicans 501 by microdilution method; type: functional
Nakaseomyces glabratus [18] = test: Antifungal activity against Candida glabrata 531 by microdilution method; type: functional
Candida albicans [19] = test: Antifungal activity against Candida albicans 498 by microdilution method; type: functional
Nakaseomyces glabratus [20] = test: Antifungal activity against Candida glabrata; type: functional
Nakaseomyces glabratus [21] = test: Antifungal activity against Candida glabrata WT-5; type: functional
Candida parapsilosis [22] = test: Antifungal activity against Candida parapsilosis 90/2224; type: functional; details: Lodderomyces parapsilosis
Trichophyton rubrum [23] = test: Antifungal activity against Trichophyton rubrum NBRC 5467 by microdilution method; type: functional
Candida albicans [24] = test: Antifungal activity against Candida albicans 53 by microdilution method; type: functional
Pichia kudriavzevii [25] = test: Antifungal activity against Candida krusei 168 by microdilution method; type: functional
Pichia kudriavzevii [26] = test: Antifungal activity against Candida krusei CK25; type: functional
Candida parapsilosis [27] = test: Antifungal activity against Candida parapsilosis ATCC 22014; type: functional; details: Lodderomyces parapsilosis
Nakaseomyces glabratus [28] = test: Antifungal activity against Candida glabrata 493 by microdilution method; type: functional
Nakaseomyces glabratus [29] = test: Antifungal activity against Candida glabrata 510 by microdilution method; type: functional
Nakaseomyces glabratus [30] = test: Antifungal activity against Candida glabrata 587 by microdilution method; type: functional
Candida tropicalis [31] = test: Antifungal activity against Candida tropicalis 166 by microdilution method; type: functional
[32] = tested on: Trichophyton mentagrophytes; test: Antifungal activity against Trichophyton mentagrophytes IFM 46027 by microdilution method; type: functional
Candida parapsilosis [33] = test: Antifungal activity against Candida parapsilosis; type: functional; details: Lodderomyces parapsilosis
Nakaseomyces glabratus [34] = test: Antifungal activity against Candida glabrata 482 by microdilution method; type: functional
Pichia kudriavzevii [35] = test: Antifungal activity against Candida krusei ATCC 6258; type: functional
Pichia kudriavzevii [36] = test: Antifungal activity against Candida krusei; type: functional
Candida albicans [37] = test: Antifungal activity against Candida albicans clinical isolates after 48 hrs by checkerboard method; type: functional
Nakaseomyces glabratus [38] = test: Antifungal activity against Candida glabrata after 48 hrs by checkerboard method; type: functional
Candida albicans [39] = test: Antifungal activity against Candida albicans SC 5314 after 48 hrs by checkerboard method; type: functional; details: SC 5314, 48 h
Candida parapsilosis [40] = test: Antifungal activity against Candida parapsilosis ATCC 22019 after 18 hrs by two-fold microdilution method; type: functional; details: Lodderomyces parapsilosis, ATCC 22019, 18 h
Nakaseomyces glabratus [41] = test: Antifungal activity against Candida glabrata ATCC 90030 after 18 hrs by two-fold microdilution method; type: functional; details: ATCC 90030, 18 h
Candida albicans [42] = test: Antifungal activity against Candida albicans ATCC 90028 after 18 hrs by two-fold microdilution method; type: functional; details: ATCC 90028, 18 h
Pichia kudriavzevii [43] = test: Antifungal activity against Candida krusei ATCC 6258 after 18 hrs by two-fold microdilution method; type: functional; details: ATCC 6258, 18 h
[44] = Inhibition of fatty acid synthase in Trichophyton rubrum ATCC MYA3108
Trichophyton rubrum [45] = test: Antifungal activity against Trichophyton rubrum ATCC MYA3108 by CLSI-based microdilution method; type: functional
Trichophyton rubrum [46] = test: Antifungal activity against Trichophyton rubrum deltaTruMDR2 by CLSI-based microdilution method; type: functional
Aspergillus fumigatus [47] = test: Antifungal activity against Aspergillus fumigatus; type: functional
Candida albicans [48] = test: Antifungal activity against Candida albicans ATCC 44859 after 24 to 48 hrs; type: functional
Cryptococcus neoformans = test: Antifungal activity against Cryptococcus neoformans by CLSI-based microdilution method; type: functional
Candida tropicalis [49] = test: Antifungal activity against FLC-resistant Candida tropicalis in presence of FLC; type: functional
Candida tropicalis [50] = test: Antifungal activity against FLC-resistant Candida tropicalis; type: functional

## Cc1c(O)c2c(c3c1OC(C)(C)C=C3)O[C@H](c1ccc(O)c(O)c1)CC2=O
Trichophyton
  MIC: 1.95 µg/mL (≈ 5.29 µM)
Candida albicans [1]
  MIC: 1.96 µg/mL (≈ 5.32 µM)

## COc1ccc(-c2cc(=O)c3c(O)cc(OC)cc3o2)cc1 [APIGENIN DIMETHYLETHER]
Candida albicans [2]
  IC50: 51.6 µg/mL

## O=c1cc(-c2ccc(O)cc2)oc2cc(O)cc(O)c12 [APIGENIN]
Candida albicans [3]
  inhibition at 50 µg/mL: 99.8%
Candida parapsilosis [4]
  MIC: 5 µg/mL (≈ 18.5 µM)
Trichophyton rubrum [5]
  MIC: 5 µg/mL (≈ 18.5 µM)
Candida albicans [6]
  MIC: 5 µg/mL (≈ 18.5 µM)
Trichosporon beigelii
  MIC: 5 µg/mL (≈ 18.5 µM)
Candida albicans [7]
  MIC: 125 µg/mL (≈ 463 µM)
Malassezia furfur
  MIC: 5 µg/mL (≈ 18.5 µM)

## O=c1cc(-c2ccccc2)oc2cc(O)c(O)c(O)c12 [BAICALEIN]
Candida albicans [8]
  MIC50: 4 to 32 µg/mL (≈ 14.8 to 118 µM)
Nakaseomyces glabratus [9]
  MIC: 52.7 µg/mL (≈ 195 µM)
Nakaseomyces glabratus [10]
  MIC: 1.9 µg/mL (≈ 7.03 µM)
Candida albicans [11]
  MIC: 13 to 26 µg/mL (≈ 48.1 to 96.2 µM)
Candida albicans [12]
  MIC: 10.4 µg/mL (≈ 38.5 µM)
Candida tropicalis [13]
  MIC: 52 to 104 µg/mL (≈ 192 to 385 µM)
Aspergillus fumigatus [14]
  MIC: 230 µM (≈ 62.2 µg/mL)
Candida albicans [15]
  MIC: 30 µM (≈ 8.11 µg/mL)
Candida parapsilosis [16]
  MIC: 5.2 to 13 µg/mL (≈ 19.2 to 48.1 µM)
  MIC50: 13 to 104 µg/mL (≈ 48.1 to 385 µM)
Candida albicans [17]
  MIC: 10.4 µg/mL (≈ 38.5 µM)
Nakaseomyces glabratus [18]
  MIC: 1.9 µg/mL (≈ 7.03 µM)
Candida albicans [19]
  MIC: 10.4 µg/mL (≈ 38.5 µM)
Nakaseomyces glabratus [20]
  MIC: 2.7 µg/mL (≈ 9.99 µM)
Nakaseomyces glabratus [21]
  MIC: 52.7 µg/mL (≈ 195 µM)
Candida parapsilosis [22]
  MIC: 5.4 µg/mL (≈ 20 µM)
Trichophyton rubrum [23]
  MIC: 120 µM (≈ 32.4 µg/mL)
Candida albicans [24]
  MIC: 10.4 µg/mL (≈ 38.5 µM)
Pichia kudriavzevii [25]
  MIC: 21 µg/mL (≈ 77.7 µM)
Pichia kudriavzevii [26]
  MIC: 2.7 µg/mL (≈ 9.99 µM)
Candida parapsilosis [27]
  MIC: 5.4 µg/mL (≈ 20 µM)
Candida albicans [1]
  MIC: 5.4 µg/mL (≈ 20 µM)
Nakaseomyces glabratus [28]
  MIC: 1.9 µg/mL (≈ 7.03 µM)
Nakaseomyces glabratus [29]
  MIC: 1.9 µg/mL (≈ 7.03 µM)
Nakaseomyces glabratus [30]
  MIC: 1.9 µg/mL (≈ 7.03 µM)
Candida tropicalis [31]
  MIC: 10.4 µg/mL (≈ 38.5 µM)
  MIC50: 13 to 104 µg/mL (≈ 48.1 to 385 µM)
[32]
  MIC: 60 µM (≈ 16.2 µg/mL)
Candida parapsilosis [33]
  MIC: 5.4 µg/mL (≈ 20 µM)
Nakaseomyces glabratus [34]
  MIC: 1.9 µg/mL (≈ 7.03 µM)
Pichia kudriavzevii [35]
  MIC: 2.7 µg/mL (≈ 9.99 µM)
Pichia kudriavzevii [36]
  MIC: 2.7 µg/mL (≈ 9.99 µM)

## O=C(O)[C@H]1O[C@@H](Oc2cc3oc(-c4ccccc4)cc(=O)c3c(O)c2O)[C@H](O)[C@@H](O)[C@@H]1O [BAICALIN]
Candida albicans [37]
  MIC: 500 µg/mL
Nakaseomyces glabratus [38]
  MIC: 250 µg/mL
Candida albicans [39]
  MIC: 500 µg/mL

## CC1(C)C=Cc2c(cc(O)c3c(=O)c(-c4ccc(O)cc4)coc23)O1 [DERRONE]
Candida parapsilosis [40]
  MIC: 7.81 µg/mL (≈ 23.2 µM)
Nakaseomyces glabratus [41]
  MIC: 7.81 µg/mL (≈ 23.2 µM)
Candida albicans [42]
  MIC: 7.81 µg/mL (≈ 23.2 µM)
Pichia kudriavzevii [43]
  MIC: 7.81 µg/mL (≈ 23.2 µM)

## OC(Cn1cncn1)(Cn1cncn1)c1ccc(F)cc1F [FLUCONAZOLE]
[44]
  IC50: 68.23 µg/mL (≈ 223 µM)
Candida albicans [1]
  MIC: 5.1 to 62.5 µg/mL (≈ 16.7 to 204 µM)
Trichophyton rubrum [45]
  MIC: 63 µg/mL (≈ 206 µM)
Trichophyton rubrum [46]
  MIC: 63 µg/mL (≈ 206 µM)
Aspergillus fumigatus [47]
  MIC: 125 µg/mL (≈ 408 µM)
Candida albicans [48]
  MIC: 10.2 µM (≈ 3.12 µg/mL)

## O=c1c(O)c(-c2ccc(O)c(O)c2)oc2cc(O)cc(O)c12 [QUERCETIN]
Nakaseomyces glabratus [10]
  MIC: 7.8 to 15.8 µg/mL (≈ 25.8 to 52.3 µM)
Candida albicans [12]
  MIC: > 83 µg/mL
Cryptococcus neoformans
  MIC: > 125 µg/mL
Candida tropicalis [49]
  MIC: 16 µg/mL
Candida parapsilosis [16]
  MIC: > 83 µg/mL
Candida albicans [17]
  MIC: > 83 µg/mL
Nakaseomyces glabratus [18]
  MIC: 7.8 to 15.8 µg/mL (≈ 25.8 to 52.3 µM)
Candida albicans [19]
  MIC: > 83 µg/mL
Candida albicans [24]
  MIC: > 83 µg/mL
Pichia kudriavzevii [25]
  MIC: > 83 µg/mL
Nakaseomyces glabratus [28]
  MIC: 7.8 to 15.8 µg/mL (≈ 25.8 to 52.3 µM)
Trichophyton rubrum [45]
  MIC: 125 µg/mL (≈ 414 µM)
Nakaseomyces glabratus [29]
  MIC: 7.8 to 15.8 µg/mL (≈ 25.8 to 52.3 µM)
Nakaseomyces glabratus [30]
  MIC: 7.8 to 15.8 µg/mL (≈ 25.8 to 52.3 µM)
Candida tropicalis [31]
  MIC: > 83 µg/mL
Trichophyton rubrum [46]
  MIC: 125 µg/mL (≈ 414 µM)
Nakaseomyces glabratus [34]
  MIC: 7.8 to 15.8 µg/mL (≈ 25.8 to 52.3 µM)
Candida tropicalis [50]
  MIC: ≤ 0.5 µg/mL
